Molecules are shown by their SMILES. pIC50: −log10 of the molar value.

This note sets out measurements from patent US8975264B2, “Compound acting as a cannabinoid receptor-1 inhibitor” (Amorepacific Corporation, priority 2010, dated 2015).

The target of the assay is human CB1 (cannabinoid receptor 1) (Homo sapiens, UniProt P21554). Briefly: CB1 receptor inhibition effect: calcium ion influx assay (Fluo-4 NW) in Chem-1 cells after 1 μM R-(+)-WIN55212-2. Format: cell-based. Conditions: calcium ion influx in Chem-1 cells expressing human CB1, 1 μM R-(+)-WIN55212-2. The protocol: When cells in which the cannabinoid receptor 1 (CB1) is stably expressed are treated with a CB1 receptor agonist, the CB1 receptor is activated and influx of calcium ions into the cells increases. CB1 receptor inhibition effect of a test compound can be evaluated by measuring the degree of calcium influx inhibition after treating with the test compound.
Chain of human CB1 (cannabinoid receptor 1) (P21554 whole entry): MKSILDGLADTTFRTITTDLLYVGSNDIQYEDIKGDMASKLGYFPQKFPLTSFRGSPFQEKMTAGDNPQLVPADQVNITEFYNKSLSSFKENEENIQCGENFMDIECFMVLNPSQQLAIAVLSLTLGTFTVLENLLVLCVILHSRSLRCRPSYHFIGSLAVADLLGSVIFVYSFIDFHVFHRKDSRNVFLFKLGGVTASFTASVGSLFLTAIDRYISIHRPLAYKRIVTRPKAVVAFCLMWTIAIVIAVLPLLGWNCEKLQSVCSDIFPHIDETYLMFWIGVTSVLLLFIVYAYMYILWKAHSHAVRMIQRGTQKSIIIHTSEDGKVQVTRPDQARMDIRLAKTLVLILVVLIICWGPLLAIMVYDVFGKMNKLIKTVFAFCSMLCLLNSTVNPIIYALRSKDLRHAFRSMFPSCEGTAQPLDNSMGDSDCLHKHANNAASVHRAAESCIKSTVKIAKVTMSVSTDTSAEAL
First, Chem-1 cells (Chemicon International, #HTS019C) in which human CB1 cDNA is expressed stably were seeded onto a 96-well cell culture plate at a density of ˜50,000 cells/well and incubated overnight in a 5% CO2 incubator at 37° C. The next day, the culture medium was discarded and the cells were cautiously washed once using an assay buffer (HBSS containing 20 mM HEPES and 2.5 mM probenecid) with 200 μL/well. Calcium ion influx was measured using an assay kit (Fluo-4 NW calcium assay kit: Molecular Probes™, #F36206) according to the manufacturer's instructions. The compounds of Examples of desired concentration to be measured were comprised to 0.5% DMSO. For control, only 0.5% DMSO was used without the compounds of Examples. Reaction time was 10 minutes. After treating the Chem-1 cells stably expressing the CB1 receptor with 1 μM R-(+)-WIN55212-2 (Sigma, #W102), a CB1 receptor agonist, calcium ion (Ca^2+) flux induced thereby was measured for 80 seconds using Flex Station 3 (Molecular Device, USA).
The difference in calcium ion concentration of the cells treated with the compounds of Examples or those treated with 1 μM R-(+)-WIN55212-2 was obtained from the difference of the maximum and minimum values during the 80 seconds. Then, % inhibition of the compounds for the CB1 receptor was calculated using the following equation. % inhibition={1−(ΔRFUcompound−ΔRFUBlank)/(ΔRFUControl−ΔRFUBlank)}×100 [Equation]
ΔRFU: maximum relative fluorescence units−minimum relative fluorescence units
ΔRFUCompound: difference in maximum and minimum RFUs in the well where the compounds of Examples dissolved in DMSO to a final concentration of 0.5% and 1 μM R-(+)-WIN55212-2 dissolved in DMSO to a final concentration of 0.5% were added
ΔRFUBlank: difference in maximum and minimum RFUs in the well to which only 1% DMSO was added
ΔRFUControl: difference in maximum and minimum RFUs in the well where 0.5% DMSO and 1 μM R-(+)-WIN55212-2 dissolved in DMSO to a final concentration of 0.5% were added

With `COCc1nn2c(-c3cccc(F)c3)cc(N3CCC[C@H]3CO)nc2c1-c1ccc(OC)cc1` [Example 223], the pIC50 – broadly, the negative decadic logarithm of the IC50, by convention in mol/L – was 8.30. The same measure for `OC[C@@H]1CCCN1c1cc(-c2cccc(F)c2)n2nc(C3CC3)c(-c3ccc(Cl)cc3)c2n1` [Example 197]: 6.82; for `CCOc1ccc(-c2c(C)nn3c(-c4ccc(C)cc4)cc(N4CCC[C@H]4CO)nc23)cc1` [Example 53]: 6.41.

As to `Cc1nn2c(-c3cccc(C(F)(F)F)c3)cc(N3CCC[C@H]3CO)nc2c1-c1ccc(C(F)(F)F)cc1` [Example 128], the negative logarithm of the IC50 (pIC50) is 7.18.

Consider `CSc1ccc(-c2c(C)nn3c(-c4ccc(F)cc4)cc(N4CCC[C@H]4CO)nc23)cc1` [Example 68], for which the pIC50 was 6.77. As for `CCCOc1ccc(-c2c(C)nn3c(-c4ccc(C)cc4)cc(N4CCC[C@H]4CO)nc23)cc1` [Example 194], the pIC50 is 6.70. As for `CCOCc1nn2c(-c3cccc(F)c3)cc(N(C)CCO)nc2c1-c1ccc(Cl)cc1` [Example 243], the pIC50 is 8.15.

`Cc1ccc(-c2cnn3c(-c4ccc(F)c(F)c4)cc(N4CCC[C@H]4CO)nc23)cc1` [Example 272]: the pIC50 is 6.16. Consider `COc1cccc(-c2cc(N3CCC[C@H]3CO)nc3c(-c4ccc(OC)c(F)c4)c(C)nn23)c1` [Example 186], for which the pIC50 was 6.66.

In the case of `COc1cccc(-c2cc(N3CCC[C@H]3CO)nc3c(-c4ccc(C(F)F)cc4)c(C)nn23)c1` [Example 178], the pIC50 is 6.92. The same measure for `CCOCc1nn2c(-c3cccc(C(F)(F)F)c3)cc(N3CCC[C@H]3CO)nc2c1-c1ccc(C)cc1` [Example 204]: 8.22. Regarding `CCOCc1nn2c(-c3cccc(OC)c3)cc(N(C)CCO)nc2c1-c1ccc2c(c1)OCO2` [Example 252], the pIC50 was 7.00.

On to `Cc1ccccc1-c1cc(N2CCC[C@H]2CO)nc2c(-c3ccc(Cl)cc3)c(C)nn12` [Example 13], for which the pIC50 is 6.52. Consider `COCc1nn2c(-c3cccc(C(F)(F)F)c3)cc(N3CCC[C@H]3CO)nc2c1-c1ccc(OC)cc1` [Example 221, (S)-{1-[2-methoxymethyl-7-(3-(trifluoromethyl)phenyl)-3-(4-methoxyphenyl)-pyrazolo[1,5-a]pyrimidin-5-yl]pyrrolidin-2-yl}methanol], for which the pIC50 was 8.15. Turning to `CCOc1ccc(-c2c(C)nn3c(-c4ccc(F)cc4)cc(N4CCC[C@H]4CO)nc23)cc1F` [Example 81], the pIC50 is 6.52.

Consider `Cc1ccc(-c2c(C)nn3c(-c4cc(F)cc(F)c4)cc(N4CCC[C@H]4CO)nc23)cc1` [Example 35], for which the negative-log IC50 (pIC50) was 6.39. On to `Cc1ccc(-c2cnn3c(-c4cccc(F)c4)cc(N4CCC[C@H]4CO)nc23)cc1` [Example 270], for which the negative-log IC50 (pIC50) is 6.36. `CCOCc1nn2c(-c3ccc(F)cc3)cc(N3CCC[C@H]3CO)nc2c1-c1ccc(OC)cc1` [Example 209]: the pIC50 was 7.28. As for `CCOCc1nn2c(-c3cccc(C(F)(F)F)c3)cc(N(C)CCO)nc2c1-c1ccc(C)cc1` [Example 241], the figure is 8.00; as for `CCCc1ccc(-c2c(C)nn3c(-c4ccc(F)cc4)cc(N4CCC[C@H]4CO)nc23)cc1` [Example 72], 6.46. Regarding `CCOc1ccc(-c2c(C)nn3c(-c4cccc(C(F)(F)F)c4)cc(N4CCC[C@H]4CO)nc23)cc1` [Example 124], the pIC50 was 7.15. For `COc1ccc(-c2c(C)nn3c(-c4cc(F)cc(F)c4)cc(N4CCC[C@H]4CO)nc23)cc1` [Example 45], the pIC50 was 6.92. For `COc1ccc(-c2c(C)nn3c(-c4ccc(F)c(F)c4)cc(N4CCC[C@H]4CO)nc23)cc1` [Example 38, (S)-{1-[7-(3,4-difluorophenyl)-3-(4-methoxyphenyl)-2-methylpyrazolo[1,5-a]pyrimidin-5-yl)pyrrolidin-2-yl)methanol], the negative logarithm of the IC50 (pIC50) is 7.00. On to `CCc1nn2c(-c3cccc(F)c3)cc(N3CCC[C@H]3CO)nc2c1-c1ccc(C)cc1` [Example 200], for which the pIC50 is 6.96.

For the molecule `Cc1ccc(-c2c(C)nn3c(-c4ccc(C)cc4)cc(N4CCC[C@H]4CO)nc23)cc1` [Example 30], the pIC50 was 6.80. In the case of `CCc1ccc(-c2c(C)nn3c(-c4cccc(F)c4)cc(N4CCC[C@H]4CO)nc23)cc1` [Example 116], the negative logarithm of the IC50 (pIC50) was 6.80. Turning to `CCOCc1nn2c(-c3ccc(F)cc3)cc(N3CCC[C@H]3CO)nc2c1-c1ccc(Cl)cc1` [Example 206], the pIC50 was 8.10.

In the case of `CCOc1ccc(-c2c(C)nn3c(-c4cccc(Cl)c4)cc(N4CCC[C@H]4CO)nc23)cc1` [Example 171], the pIC50 is 6.62.

With `CCc1nn2c(-c3ccc(F)cc3)cc(N3CCC[C@H]3CO)nc2c1-c1ccc(C)cc1` [Example 198, (S)-(1-(3-(4-methylphenyl)-7-(4-fluorophenyl)-2-ethylpyrazolo[1,5-a]pyrimidin-5-yl)pyrrolidin-2-yl)methanol], the negative logarithm of the IC50 (pIC50) is 7.30. In the case of `Cc1nn2c(-c3cccc(C(F)(F)F)c3)cc(N3CCC[C@H]3CO)nc2c1-c1ccc(F)c(F)c1` [Example 134], the pIC50 was 6.72. The same measure for `CCCOc1ccc(-c2c(C)nn3c(-c4cccc(C(F)(F)F)c4)cc(N4CCC[C@H]4CO)nc23)cc1` [Example 133]: 6.55; for `COCc1nn2c(-c3ccc(F)cc3)cc(N3CCC[C@H]3CO)nc2c1-c1ccc(OC)cc1` [Example 222]: 8.10. As for `Cc1nn2c(-c3ccccc3F)cc(N3CCC[C@H]3CO)nc2c1-c1ccc(Cl)cc1` [Example 4], the figure is 6.44; as for `COc1ccc(-c2c(C)nn3c(-c4ccc(F)c(Cl)c4)cc(N4CCC[C@H]4CO)nc23)cc1` [Example 46], 6.72. Regarding `Cc1cccc(-c2cc(N3CCC[C@H]3CO)nc3c(-c4ccc(C(F)F)cc4)c(C)nn23)c1` [Example 160], the pIC50 is 6.96. With `Cc1cccc(-c2cc(N3CCC[C@H]3CO)nc3c(-c4ccc(C(F)(F)F)cc4)c(C)nn23)c1` [Example 163], the pIC50 was 6.59.

As to `CCOCc1nn2c(-c3cccc(F)c3)cc(N3CCC[C@H]3CO)nc2c1-c1ccc(C)cc1` [Example 202], the pIC50 is 8.30. Turning to `Cc1ccc(-c2c(C)nn3c(-c4ccc(F)c(F)c4)cc(N4CCC[C@H]4CO)nc23)cc1F` [Example 184], the pIC50 is 6.82. As for `Cc1nn2c(-c3cccc(F)c3)cc(N3CCC[C@H]3CO)nc2c1-c1ccc(C(F)F)cc1` [Example 114], the figure is 7.11; as for `COCc1nn2c(-c3cccc(C(F)(F)F)c3)cc(N3CCC[C@H]3CO)nc2c1-c1ccc2c(c1)OCO2` [Example 238], 7.62; as for `CCc1cccc(-c2cc(N3CCC[C@H]3CO)nc3c(-c4ccc(C)cc4)c(C)nn23)c1` [Example 31], 6.89.

Regarding `COc1ccc(-c2c(C)nn3c(-c4cccc(F)c4)cc(N4CCC[C@H]4CO)nc23)cc1` [Example 111], the negative logarithm of the IC50 (pIC50) is 7.22. As for `CCc1ccc(-c2c(C)nn3c(-c4cccc(Cl)c4)cc(N4CCC[C@H]4CO)nc23)cc1` [Example 174], the figure is 6.66; as for `Cc1cc(-c2c(C)nn3c(-c4ccc(F)cc4)cc(N4CCC[C@H]4CO)nc23)ccc1F` [Example 101], 6.80. With `CSc1ccc(-c2c(C)nn3c(-c4cccc(C)c4)cc(N4CCC[C@H]4CO)nc23)cc1` [Example 162], the negative logarithm of the IC50 (pIC50) was 6.96. Regarding `Cc1cccc(-c2cc(N3CCC[C@H]3CO)nc3c(-c4ccc(Cl)cc4)c(C)nn23)c1` [Example 12], the pIC50 is 6.68.
